Measured values: PMC12392461, “Beyond Estrogenicity: A Comparative Assessment of Bisphenol A and Its Alternatives in In Vitro Assays Questions Safety of Replacements” (Environmental Science & Technology, 2025)
Where two headings read alike, the source gives them in different places.

Legend:
PPARγ = test system: PPARγ; parameters: method as in Crosthwait et al. 2025; Sun et al. 2025; details: ref Crosthwait et al. 2025; Sun et al. 2025; cited from earlier work
[1] = Octanol-water partition constant (log Kow) measurement, Sirius T3 potentiometric log P; type: physicochemical; details: experimental, this study
Method: Physicochemical properties provide input parameters for the baseline toxicity model. Acidity constants (pK a) and octanol–water partition constants of the neutral species (K ow) were measured with a Sirius T instrument from Pion Inc. (Sussex, UK) (Text S1.2 and Table S1). A detailed description of the pK a and K ow measurements can be found in literature. , […]
S1.2: pKa and log Kow measurements […]
titrator (Pion Inc., Sussex, U.K.). […]
UV absorbance. For log Kow measurement, approximately 1 mg of test chemical was added to a sample vial and the measurement was done automatically via the potentiometric log P protocol. Briefly, each compound is titrated thrice in an immiscible biphasic system of octanol and phosphate buffer solution and pH is continuously recorded. The shift in p Ka -values was used to estimate the log Kow values.2, 3 Data processing was performed with Sirius T3 Refine software (version 2.0.0.0.), and the final p Ka and log Kow values were calculated as the average of three titrations. To ensure reproducibility, measurements were conducted on at least two

Tox21 assays [2] = assay: Re-evaluated Tox21 data (Adamovsky et al.), REPBPA and SRbaseline; details: for SRbaseline: Specificity Ratio;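 as to all read-outs here: published Tox21 results reanalysed with a revised model predicting baseline toxicity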
Text: We also reanalyzed the Tox21 data of Adamovsky et al. with the updated baseline toxicity prediction model (Table S2).

Tox21 assays [3] = details: cited from earlier work
ERα = details: cited from earlier work
[4] = Abiotic CYP (aCYP) oxidation, remaining parent compound (Cparent-Ratio); details: for reduction of C parent after aCYP oxidation: 15 min, 30 °C; for Cparent-Ratio Rep.1 %: Table S9, replicate 1; for Cparent-Ratio Rep.2 %: Table S9, replicate 2
Method: (§1) The mixtures were adjusted to a final volume of 100 μL with acetonitrile (ACN). The reaction mix was incubated for 15 min at 30 °C and 1000 rpm on a Bioshake iQ orbital shaker from QInstruments (Jena, Germany). Additionally, a mixture without test compounds was prepared as a control. Subsequently, 10 μL of the reaction mixture was transferred into a conical dosing vial and evaporated under a nitrogen flow.
(§2) For chemical analysis, 10 μL of the reaction mixture was concentrated under vacuum (CentriVap, Labconco, Kansas City, MO, USA), diluted to 1 mg/L in ACN or ethyl acetate. The chemical analysis of the reaction mixtures was performed using liquid chromatography (LC) and gas chromatography (GC) coupled with various detection techniques, preferably Multiple Reaction Monitoring (MRM). Data acquisition and processing were carried out using the software MassHunter. Quantification was based on external calibrations.
(§3) The Cparent-Ratio quantifies the extent of oxidation of the parent compound after the abiotic CYP reaction. It was calculated as the ratio of the parent compound concentration after oxidation (C parent, after oxidation) to its concentration before oxidation (C parent, before oxidation) as shown in eq . […] 8 Cparent‐Ratio=Cparent,after oxidation/Cparent,before oxidation

[5] = 15 min
Method: as §1, §2, §3

[6] = test system: HEK293H, HEK293T, H4IIe, MCF7 and SH-SY5Y cells; details: for cytotoxicity,median REPBPA,IC10: median IC10 relative to BPA; for IC10,Median (M): median cytotoxicity of all cell lines; for IC10, median: median cytotoxicity over all cell lines
Method: Cell culture conditions and bioassay protocols including response detection are provided in Text S2.1–2.4 and Table S3. − Cell viability was determined from cell confluency using an IncuCyte S3 Live-Cell Analysis System (Sartorius AG, Essen, Germany) before and after exposure, except for SH-SY5Y cells (live–dead staining with Nuclear Green LcS1 and propidium iodide, Abcam, UK). For metabolic activation experiments, cell viability was assessed using the ToxBLAzer DualScreen Kit (Thermo Fisher Scientific) to capture the remaining toxicity in ERα-UAS-bla GripTite after treatment with the aCYP catalyst (details in Text S2.4).
For ARE, the concentration that triggered an induction ratio of 1.5 (ECIR1.5) was used as the benchmark value, as detailed in Text S2.5. IC10 values also served as a threshold for data analysis in all assays; only concentrations below IC10 were considered when deriving EC10 or ECIR1.5.
TR indicates whether the cytotoxicity is triggered by specific toxicity mechanisms (TR ≥ 10) or not (0.1< TR< 10). 3 TR=IC10,baseline/IC10 We measured the cytotoxicity of BPA and its alternatives in HEK293H (PPARγ), HEK293T (ERα), H4IIe (AhR CALUX), MCF7 (ARE/MMP), and differentiated SH-SY5Y cells (Table S6). […]
medium, supplemented with 2% B-27 Supplement and 2 mM GlutaMAX Supplement. SH - SY5Y cells were differentiated with 10 µM all-trans retinoic acid prior to the assay.
S2.2: Cell Seeding and Incubation. For all bioassays, cell suspensions in the respective assay medium were dispensed into each well of 384-well plates using a MultiFlo Dispenser (Biotek, (now Agilent), Winooski, VT, U.S.). After seeding, the plates were incubated at 37° C and 5% CO₂ for […]. The final cell densities and plate types were as follows: Black poly-D-lysine […]
6500 cells/well, ERα: 5000 cells/well. White 384-well plates with a clear bottom (Product No.
NYC, U.S.) for AhR: 3250 cells/well. Black Collagen I coated plates were used (Product No.
S2.3: Chemical Dosing and Assay Analysis Procedures. The dosing procedure and high-throughput assay workflow have been described in detail before. 9 The dosing concentrations […]
Stock solutions were then either added directly to the respective cell culture medium or evaporated under nitrogen, followed by replenishment with fresh medium. The final solvent content in each well was kept below 1% for methanol, 0% for acetonitrile.
Dosing plates were prepared as 11 -step serial dilutions using a Hamilton Microlab Star robotic system (Hamilton, Bonaduz, Switzerland), and chemicals were dosed in duplicates by transferring 10 μL twice from the dosing plates to the cell plates . After quantifying cell confluency as described in S2. 4., the exposed cells were incubated at 37° C and 5% CO₂ for an additional 24 h. All chemicals were tested in all assays with at least three independent […]
S2.4: Cell Viability Measurement s and bioanalytical protocols . The confluency as a measure of cell viability was determined with an IncuCyte S3 Live -Cell Analysis System (Sartorius AG, Essen, Germany). With this method the confluency of cells in a microscopy image are normalized to control wells without cells and compared before and after 24 hours of exposure.
This method has been described previously 13. Cell viability of SH-SY5Y cells was measured […]
propidium iodide (PI, Abcam, Cambridge, U.K.).14 Nuclear Green LCS1 is a membrane-permeable dye that stains the nuclei of all cells, whereas PI only enters cells with compromised membrane integrity (non-viable cells). After staining, live cells show green nuclei without red fluorescence, while dead cells display both green and red nuclear fluorescence due to PI […]
intercalation. Cell viability was calculated as the proportion of green-only nuclei relative to the […]
For experiments with the preceding aCYP activation, ERα cell viability was additionally calculated from the readout of the ToxBLAzer reagent. The ToxBLAzer assay was conducted following the manufacturer's instructions (Thermo Fisher, Waltham, MA, U.S.).13 Fluorescence

[7] = TOX21_AR_LUC_MDAKB2_Antagonist_0,5nM_R1881, Relative Effect Potency
[8] = TOX21_AR_LUC_MDAKB2_Antagonist_0,5nM_R1881
[9] = TOX21_CAR_Agonist, Relative Effect Potency
[10] = TOX21_CAR_Antagonist, Relative Effect Potency
[11] = TOX21_PPARg_BLA_antagonist_ratio
[12] = Tox21BLA, ref Adamovsky et al. 2024
[13] = Tox21Luc, ref Adamovsky et al. 2024
[14] = TOX21_AR_LUC_MDAKB2_Antagonist_0,5nM_R1881, re-evaluated Tox21 data, ref Adamovsky et al 2024
[15] = TOX21_CAR_Agonist, re-evaluated Tox21 data, ref Adamovsky et al 2024
[16] = TOX21_CAR_Antagonist, re-evaluated Tox21 data, ref Adamovsky et al 2024
[17] = TOX21_PPARg_BLA_antagonist_ratio, re-evaluated Tox21 data, ref Adamovsky et al 2024
[18] = estrogen receptor from Atlantic cod (Gadus morhua), ref Goksøyr et al 2024
[19] = Table S9, loss of parent after aCYP oxidation
[20] = Table S9, mean of two replicate experiments
[21] = Table S9, replicate 1, as fraction
[22] = Table S9, replicate 2, as fraction
[23] = Table S11, measured simultaneously with bioassay

Compound	PPARγ transactivation reported in the literature (PPARγ)	log Kow used [1]	REPBPA (Tox21 assays [2]; [7])	SRbaseline (Tox21 assays [2]; [8])	REPBPA (Tox21 assays [2]; [9])	SRbaseline (Tox21 assays [2]; TOX21_CAR_Agonist)	REPBPA (Tox21 assays [2]; [10])	SRbaseline (Tox21 assays [2]; TOX21_CAR_Antagonist)	SRbaseline (Tox21 assays [2]; [11])	REPBPA (Tox21 assays [2]; [12])	Efficacy % (ERα; ref Pelch et al 2019) [%]	% Loss [4, 19] [%]	Cparent-Ratio Mean [4, 20]	Cparent-Ratio Rep.1 % [4] [%]	Cparent-Ratio Rep.1 [4, 21]	Cparent-Ratio Rep.2 % [4] [%]	Cparent-Ratio Rep.2 [4, 22]	cytotoxicity,median REPBPA,IC10 [6]	IC10,Median (M) [6]	IC10, median [6] [nM]	also measured
O=S(=O)(c1ccc(O)cc1)c1ccccc1O [2,4-BPS, 2,4'-Dihydroxydiphenyl sulfone]	No agonism was detected	1.90																			
CC(C)(c1ccc(O)cc1)c1ccc(O)cc1 [BPA, 4,4'-(Propane-2,2-diyl)diphenol, reference compound]	No agonism was detected	4.25	1.00	32.80	1.00	57.94	1.00	145.9	10.39	1.00E+00	110.30	15	0.85	86.04	0.86	84.76	0.85				REPBPA (Tox21 assays [2]; ATG_NRF2_ARE_CIS_up, Relative Effect Potency): 1.00; SRbaseline (Tox21 assays [2]; ATG_NRF2_ARE_CIS_up): 10.51; REPBPA (Tox21 assays [2]; [13]): 1.00E+00; EC10 (Tox21 assays [3]; ATG_NRF2_ARE_CIS_up, re-evaluated Tox21 data, ref Adamovsky et al 2024): 7.56e-06 M; EC10 (Tox21 assays [3]; [14]): 2.42e-06 M; EC10 (Tox21 assays [3]; [15]): 1.37e-06 M; EC10 (Tox21 assays [3]; [16]): 5.45e-07 M; EC10 (Tox21 assays [3]; [17]): 7.65e-06 M; EC10 (Tox21 assays [3]; [12]): 5.92E-07; EC10 (Tox21 assays [3]; [13]): 5.63E-08; EC50 (ERα; [18]): 1900 nM; EC50 (ERα; ref Kojima et al 2019): 330 nM; EC50 (ERα; ref Pelch et al 2019): 1200 nM; EC50 (ERα; ref Reiniger et Oehlmann 2024): 2260 nM; Efficacy % (ERα; ref Reiniger et Oehlmann 2024): 9.42E+01%; reduction of C parent after aCYP oxidation [4]: 15%; % Loss ([4]; Table S11): 11%; Cparent-Ratio Mean [4, 23]: 0.89; Cparent-Ratio Rep.1 [4, 23]: 0.90; Cparent-Ratio Rep.2 [4, 23]: 0.88
Oc1ccc(C(c2ccc(O)cc2)(C(F)(F)F)C(F)(F)F)cc1 [BPAF, 4,4'-(1,1,1,3,3,3-Hexafluoropropane-2,2-diyl)diphenol]	No agonism was detected	4.72	0.83	22.15	0.26	12.10	1.29	153.1	11.28	2.86E+00	91.50							3.07	2.28 × 10^–5 M	22800	REPBPA (Tox21 assays [2]; [13]): 1.23E+00; EC10 (Tox21 assays [3]; [14]): 2.92e-06 M; EC10 (Tox21 assays [3]; [15]): 5.35e-06 M; EC10 (Tox21 assays [3]; [16]): 4.23e-07 M; EC10 (Tox21 assays [3]; [17]): 5.75e-06 M; EC10 (Tox21 assays [3]; [12]): 2.07E-07; EC10 (Tox21 assays [3]; [13]): 1.10E-08; % Loss [5]: -9%; EC50 (ERα; [18]): 230 nM; EC50 (ERα; ref Kojima et al 2019): 390 nM; EC50 (ERα; ref Pelch et al 2019): 130 nM; EC50 (ERα; ref Reiniger et Oehlmann 2024): 434 nM; Efficacy % (ERα; ref Reiniger et Oehlmann 2024): 8.21E+01%; REPBPA,ERα reported in the literature (ERα; ref Text S5.4, Tables S2 and S7): 3–5
O=S(=O)(c1ccc(O)cc1)c1ccc(OCc2ccccc2)cc1 [BPS-MPE, 4-[4-(benzyloxy)benzenesulfonyl]phenol]	significant PPARγ activation	4.28									9.40	0.295	1.00	118.51	1.19	80.90	0.81	0.62	1.12 × 10^–4 M	112000	
CC(C)Oc1ccc(S(=O)(=O)c2ccc(O)cc2)cc1 [D8, 4-((4-Isopropoxyphenyl)sulfonyl)phenol]	weaker effects										10.30	-13	1.13	114.96	1.15	110.37	1.10	0.21			
Cc1ccc(S(=O)(=O)NC(=O)Nc2cccc(OS(=O)(=O)c3ccc(C)cc3)c2)cc1 [Pergafast, N-(p-toluenesulfonyl)-N'-(3-(p-toluenesulfonyloxy)phenyl)urea]	weaker effects	4.11										44	0.56	66.98	0.67	45.82	0.46	3.67	1.91 × 10^–5 M	19100	reduction of C parent after aCYP oxidation [4]: 44%; % Loss ([4]; Table S11): 32%; Cparent-Ratio Mean [4, 23]: 0.68; Cparent-Ratio Rep.1 [4, 23]: 0.75; Cparent-Ratio Rep.2 [4, 23]: 0.61
